These results are taken from patent US20200102349A1, “PEPTIDE REAGENTS AND METHODS FOR DETECTION AND TARGETING OF DYSPLASIA, EARLY CANCER AND CANCER” (THE REGENTS OF THE UNIVERSITY OF MICHIGAN, priority 2014, published 2020).

The subject of series [1] is vascular endothelial growth factor A (VEGFA). The note with it: n=14 BE patients, topical and systemic; cited from earlier work.
Series [2] is described as follows: Pharmacology/toxicology study in rats, single dose oral gavage. As to Blood tests (days 2 and 15): key: NAD: No abnormalities detected. As to Clinical signs: key: NAD: No abnormalities detected. As to Necropsy (days 2 and 15): key: NAD: No abnormalities detected. As to Observe (morbidity, mortality, injury, body weights, food and water consumption): key: NAD: No abnormalities detected. As to Urinalysis: key: NAD: No abnormalities detected. Conditions: for Blood tests (days 2 and 15) / Clinical signs / Necropsy (days 2 and 15) / Observe (morbidity, mortality, injury, body weights, food and water consumption) / Urinalysis: oral gavage. It counts as in vivo. How it is done:
A rigorous pharmacology/toxicology study was performed in animals (MPI Research) for each peptide to provide pre-clinical evidence for safety. A total of 24 male and 24 female rats (CD®[Crl:CD® (SD)] (Charles River) were used in each study. At 8 weeks of age, the animals were randomly assigned to 4 groups, including 3 treatment and 1 control. Dose levels of 0.0086, 0.026, and 0.86 mg/kg were used for QRH*-Cy5, and 0.186, 0.32, and 1.08 mg/kg were used for KSP*-IRDye800. The control group received 10 mL/kg of PBS as vehicle. The vehicle and test articles were administered by single dose oral gavage. Clinical signs, including morbidity, mortality, and injury, were monitored twice daily. Laboratory tests and necropsy were evaluated in 3 animals/sex/dose on days 2 and 15.

Series [3] is described as follows: Phase 1 first-in-human safety study, oral administration. Conditions: n=25 human subjects, 0.5 mg or 1.2 mg. In kind it is in vivo. The protocol: A first-in-human study was performed to establish clinical evidence of safety for each peptide. An Investigational New Drug (IND) application (sponsor DKT) was prepared, and submitted for review to the US Food and Drug Administration (FDA). […] The study protocols were reviewed and approved by the Institutional Review Board (IRB) at the University of Michigan. These studies, including NCT02574858 (QRH*-Cy5) and NCT03161418 (KSP*-IRDye800), were registered online at ClinicalTrials.gov. A total of n=25 subjects was recruited for each study. All enrolled patients provided written informed consent. A dose escalation study was performed. The first n=3 subjects were administered 0.5 mg of peptide reconstituted in 5 mL of normal saline (0.9%) per oral. […] An electrocardiogram (EKG) was performed and vital signs were monitored. […] No images were collected during the safety study.

Series [4] in a line: Stability of lyophilized cGMP peptides on storage. In kind it is physicochemical. Conditions: KSP*-IRDye800 lyophilized, −20° C.; for Molecular: molecular weight by Q-TOF. The source says:
QRHKPRE (SEQ ID NO: 1) was labeled with Cy5 via a GGGSK (SEQ ID NO: 18) linker to prevent steric hindrance. This sequence was selected using phage display methods for specific binding to EGFR.^22 KSPNPRF (SEQ ID NO: 26) was labeled with IRDye800 via a GGGSC (SEQ ID NO: 27) linker, hereafter KSP*-IRDye800. This sequence was identified using a structural model for specific binding to ErbB2.^23 The fluorophores used were chosen to minimize spectral overlap between absorbance and emission. QRH*-Cy5 and KSP*-IRDye800 were synthesized using current good manufacturing practices (cGMP) methods. Peptide stability was monitored by visual appearance, purity (HPLC), and molecular weight over the duration of the study.

For series [5], the target named is T1, ErbB2 (Homo sapiens, UniProt P04626).
T1 construct: topically administered into the distal esophagus using a standard spray catheter; from tissue; host or cells: distal esophagus mucosa of Barrett's patients, in vivo
Put plainly: Multiplexed in vivo imaging of distal esophagus in patients, KSP*-IRDye800 channel. How it is done: A multi-modal scanning fiber endoscope (mmSFE) was designed to collect fluorescence and reflectance concurrently. A custom fiber-coupled multi-laser system (SpectraTEC, Blue Sky Research) provides illumination at λex=638 and 785 nm concurrently through a single mode fiber (SMF) to excite QRH*-Cy5 and KSP*-IRDye800, respectively. A 0.4 mm diameter metal coated piezo tube actuator (Nagamine) generates a spiral scan pattern at an average maximum deflection angle of about 70°. Large core (500 μm diameter) multi-mode fibers (MMF) with high numerical aperture (NA=0.6, Mitsubishi Rayon) are arranged around the instrument periphery to maximize light collection.^38 The diameter and rigid length of the distal tip were designed to pass forward easily through the working channel of a standard upper endoscope.
The optics used to separate and collect fluorescence from each peptide was contained within the base station (VerAvanti). A notch filter (NF, # NF03-785E-25, Semrock) was used to attenuate the excitation beam at λ=785 nm. Reflectance at λ=[…] was deflected by a dichroic beam splitter (BS1, # FF652-Di02, Semrock) to a multi-pixel photon counter (MPPC1, SiPM, Hamamatsu) for detection. Fluorescence from QRH*-Cy5 was deflected by a second beam splitter (BS2, # Di02-R785, Semrock) centered at λ=785 nm through a bandpass filter (BPF, FF01-697/58, Semrock) that transmits between 668-726 nm for detection by MPPC2. Fluorescence from KSP*-IRDye800 passes through BS2 and long pass filter (LPF, # BLP01-785R, Semrock) with cutoff at λ=805 nm and is detected by MPPC3. Kinematic filter cubes (DFM1/M, ThorLabs) were used to mount and align the optics.
Consecutive patients referred to Michigan Medicine for either evaluation or therapy of Barrett's neoplasia (LGD/HGD/EAC) were recruited. Inclusion criteria included: 1) history of Barrett's neoplasia, 2) medically able to tolerate upper endoscopy, and 3) age over 18. Exclusion criteria included: 1) history of esophagectomy and 2) on active chemotherapy or radiation protocol. The multiplexed imaging study was approved by the University of Michigan IRB, and was registered online at ClinicalTrials.gov (NCT03589443). […] Separate channels were used to record fluorescence images from QRH*-Cy5 and KSP*-IRDye800 and from reflectance at λ=638 nm. The conventional white light illumination was shut off during collection of fluorescence images to prevent interference. […]
Video streams with greater than 30 consecutive images (1 second) that had negligible artifacts, including debris, bubbles, pooling, and conventional white light, were extracted from the original recordings. Single frames from the target regions with high contrast and minimum motion blur and distortion were selected for intensity quantification. The frames were separated into two fluorescence channels and a co-registered reflectance image. Target/background (T/B) ratios were calculated for each fluorescence image as follows. […] Fluorescence regions with high intensity were segmented using the Chan-Vese algorithm,^39 where an active contour model was evolved iteratively to minimize the energy function, Eq. 1, defined by the weighted sum of the 1) boundary length, 2) area, and variance of intensity 3) inside and 4) outside of the segmented region. […]

Series [6] relates to Barrett's neoplasia (HGD/EAC). Nature of the series: Multiplexed in vivo imaging of distal esophagus in patients, both channels combined. Set-up: species or system human. The note with it: topical, 5 minutes incubation. How it is done:
A multi-modal scanning fiber endoscope (mmSFE) was designed to collect fluorescence and reflectance concurrently. A custom fiber-coupled multi-laser system (SpectraTEC, Blue Sky Research) provides illumination at λex=638 and 785 nm concurrently through a single mode fiber (SMF) to excite QRH*-Cy5 and KSP*-IRDye800, respectively. A 0.4 mm diameter metal coated piezo tube actuator (Nagamine) generates a spiral scan pattern at an average maximum deflection angle of about 70°. […]
The optics used to separate and collect fluorescence from each peptide was contained within the base station (VerAvanti). […] Fluorescence from QRH*-Cy5 was deflected by a second beam splitter (BS2, # Di02-R785, Semrock) centered at λ=785 nm through a bandpass filter (BPF, FF01-697/58, Semrock) that transmits between 668-726 nm for detection by MPPC2. Fluorescence from KSP*-IRDye800 passes through BS2 and long pass filter (LPF, # BLP01-785R, Semrock) with cutoff at λ=805 nm and is detected by MPPC3. […]
Consecutive patients referred to Michigan Medicine for either evaluation or therapy of Barrett's neoplasia (LGD/HGD/EAC) were recruited. […] Separate channels were used to record fluorescence images from QRH*-Cy5 and KSP*-IRDye800 and from reflectance at λ=638 nm. The conventional white light illumination was shut off during collection of fluorescence images to prevent interference. […]

Chain of vascular endothelial growth factor A (VEGFA) (P15692 207-311 limits assumed): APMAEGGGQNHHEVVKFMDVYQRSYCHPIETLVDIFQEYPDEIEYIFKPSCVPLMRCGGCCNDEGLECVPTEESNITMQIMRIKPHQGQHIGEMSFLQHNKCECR

Consider “Bevacizumab: antibody specific for VEGFA, repurposed for diagnostic imaging by labeling with IRDye800”, for which the “increase in detection of early lesions using fluorescence compared with HD-WLE and NBI” value in series [1] was “about 33%”.

In the case of “Lys^1-Ser^2-Pro^3-Asn^4-Pro^5-Arg^6-Phe^7-Gly^8-Gly^9-Gly^10-Ser^11-Cys^12(IRDye800) [KSP*-IRDye800]”, the “Blood tests (days 2 and 15)” value in series [2] (KSP*-IRDye800 0.186 mg/kg), in series [2] (KSP*-IRDye800 0.32 mg/kg) and in series [2] (KSP*-IRDye800 1.08 mg/kg) was “NAD” throughout. The Clinical signs entry in series [2] (KSP*-IRDye800 0.186 mg/kg), in series [2] (KSP*-IRDye800 0.32 mg/kg) and in series [2] (KSP*-IRDye800 1.08 mg/kg) was “NAD” throughout. In addition, the “Necropsy (days 2 and 15)” value in series [2] (KSP*-IRDye800 0.186 mg/kg), in series [2] (KSP*-IRDye800 0.32 mg/kg) and in series [2] (KSP*-IRDye800 1.08 mg/kg) was “NAD” throughout. Also, the “Observe (morbidity, mortality, injury, body weights, food and water consumption)” value in series [2] (KSP*-IRDye800 0.186 mg/kg), in series [2] (KSP*-IRDye800 0.32 mg/kg) and in series [2] (KSP*-IRDye800 1.08 mg/kg) was “NAD” each time. The Urinalysis result in series [2] (KSP*-IRDye800 0.186 mg/kg), in series [2] (KSP*-IRDye800 0.32 mg/kg) and in series [2] (KSP*-IRDye800 1.08 mg/kg) was “NAD” throughout. Also, the “acute adverse effects in animal pharmacology/toxicology study (GLP)” value in series [2] (single dose oral gavage) was “No acute adverse effects”. Moreover, the “abnormalities in laboratory results, urinalysis, and EKG” value in series [3] is reported as “No abnormalities”. Further, the “adverse events (AE)” value in series [3] was “no adverse events”. Moreover, the Molecular in series [4] (time 0) is given as 2397.6; in series [4] (time 12) it was 2397.5; in series [4] (time 24) it was 2397.6; in series [4] (time 36), 2397.6. Moreover, the “Purity (HPLC)” value worked out at 98.8% in series [4] (time 0); 98.8% in series [4] (time 6); 98.7% in series [4] (time 12); 98.9% in series [4] (time 18); 98.9% in series [4] (time 24); 98.7% in series [4] (time 30). Moreover, the “Purity (HPLC)” value in series [4] (time 36) is 98.9%. The “mean (±SD) T/B ratio” value in series [5] (HGD (n=7) and EAC (n=6)) was 1.68±0.24; in series [5] (SQ (n=3) and NDBE (n=6), topical, distal esophagus), 1.28±0.14. Also, the T/B ratio in series [5] (LGD (n=1)) is on record as 1.14. The Accuracy in series [5] (T/B ratio from KSP*-IRDye800 alone, HGD/EAC vs SQ/NDBE/LGD, LOOCV) is listed as 83%. Moreover, the AUC in series [5] (T/B ratio from KSP*-IRDye800 alone, average of 1000 bootstrap samples) is reported as 0.95. Further, the “fluorescence from regions of HGD and EAC in vivo” value in series [6] was “Increased fluorescence intensities”.
